In brackets after ≈: the same amount, converted by molar mass.
Columns and labels:
Format in all cases: cell-based
[1] = test system: human liver cancer HepG2 cell; experiment: Cytotoxicity test 4 (WST method, 8 hours with sample liquid); conditions: total cultivation 72 hours, as CPT concentration
[2] = test system: human prostate cancer DU145 cell; experiment: Cytotoxicity test 3 (WST method, 8 hours with sample liquid); conditions: DU-145, total cultivation 72 hours, as CPT concentration
[3] = test system: human breast cancer MDA-MB-231 cell; experiment: Cytotoxicity test 5 (WST method, 8 hours with sample liquid); conditions: MDA-MB-231, human breast cancer, total cultivation 72 hours, as CPT concentration
Description: The human breast cancer MDA-MB-231 cell, which had been suspended in 90 μIL of a medium, was seeded to a 96-well plate so that the cell would be contained at a concentration of about 5000 cells per well, and cultivated under an atmosphere of 37° C. and 5% CO2 overnight. The medium was formed of RPMI1640 (Gibco™, Invitrogen) and 10% Fetal Bovine Serum (FBS, biowest). Subsequently, each of sample liquids at various DTX concentrations obtained by diluting the micelle solution in Example 2 and the micelle solution in Comparative Example 1 with the medium was added to each well (10 μL per well), […] […] From each well, the absorbance (Abs450) of light at a wavelength of 450 nm was measured, and the cell growth rate (% cell growth) was calculated based on the below-indicated mathematical equation. It should be noted that “Abs450 value of control” in the mathematical equation means an absorbance obtained from a well in which the above-mentioned cultivation has been performed using a culture liquid free of DTX. % cell growth=[(Abs450 value after addition of sample liquid)−(Abs450 value of blank)]/[(Abs450 value of control)−(Abs450 value of blank)]×100 […]

CC[C@@]1(O)C(=O)OCc2c1cc1n(c2=O)Cc2cc3ccccc3nc2-1 [Solution, camptothecin]
GI50 [1]: 0.04 µg/mL (≈ 0.115 µM) | GI50 [2]: 0.01 µg/mL (≈ 0.0287 µM) | GI50 [3]: 1 µg/mL (≈ 2.87 µM)

— patent US8741339B2, “Active targeting polymer micelle encapsulating drug, and pharmaceutical composition” (Nonocarrier Co., Ltd., priority 2008, dated 2014)
